Measurements published in PubChem BioAssay (NCI).
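Tested at 5 concentrations; 48 h exposure; 96-well plates; endpoints linearly interpolated, else capped at highest concentration. TGI is the concentration that stops growth completely.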

Experiments:
Experiment in all cases: NCI-60 cell line screen, 48 h
[1] = test system: T-47D breast
[2] = test system: SK-MEL-28 melanoma
[3] = test system: RXF 393 renal
[4] = test system: SF-295 CNS
[5] = test system: DU-145 prostate
[6] = test system: NCI-H460 lung
[7] = test system: BT-549 breast
[8] = test system: OVCAR-5 ovarian
[9] = test system: SNB-75 CNS
[10] = test system: SR leukemia
[11] = test system: ACHN renal
[12] = test system: HOP-62 NSCLC
[13] = test system: SK-OV-3 ovarian
[14] = test system: A549 NSCLC
[15] = test system: COLO 205 colon
[16] = test system: UACC-257 melanoma
[17] = test system: HCC-2998 colon
[18] = test system: SW-620 colon
[19] = test system: RPMI-8226 leukemia
[20] = test system: MALME-3M melanoma

Compound | TGI [1] [µM] | TGI [2] [µM] | TGI [3] [µM] | TGI [4] [µM] | TGI [5] [µM] | TGI [6] [µM] | TGI [7] [µM] | TGI [8] [µM] | TGI [9] [µM] | TGI [10] [µM] | TGI [11] [µM] | TGI [12] [µM] | TGI [13] [µM] | TGI [14] [µM] | TGI [15] [µM] | TGI [16] [µM] | TGI [17] [µM] | TGI [18] [µM] | TGI [19] [µM] | TGI [20] [µM]
CC1=CSC(O)(c2ccc(Cl)cc2)c2noc(=O)n21 (configuration not stated) | > 100 | > 100 | > 100 | > 100 | > 100 | > 100 | > 100 | > 100 | > 100 | > 100 | > 100 | > 100 | > 100 | > 100 | > 100 | 60.3 | > 100 | > 100 | > 100 | 
OC12CC3c4ccccc4NC3C3Oc4cccc5c4C31CCN(CC1CC1)C2C5 (configuration not stated) | 42.6 | 28.6 | 27.7 | 94.1 | 36.5 | 32.4 | 34.7 | 46.3 | 31.5 | 59 | 34.5 | 32.8 | 34.6 | 38.3 | 39.7 | 32.4 |  | 39.1 | 48.2 | 34.9
O=C(/C=c1\oc(=O)/c(=C/C(=O)c2ccc(Cl)cc2)oc1=O)c1ccc(Cl)cc1 | > 100 | > 100 | > 100 | > 100 | > 100 | > 100 | 91 | > 100 |  | > 100 | > 100 | > 100 | > 100 | > 100 | > 100 | > 100 | > 100 |  | > 100 | > 100
CC(O)CCNC(=O)Nc1c(C(F)(F)F)cc(-c2ccccc2)[nH]c1=O (configuration not stated) | > 100 | > 100 | > 100 | > 100 | > 100 | > 100 | > 100 | > 100 | > 100 |  | > 100 | > 100 | > 100 | > 100 | > 100 | > 100 | > 100 | > 100 | > 100 | > 100
Nc1nc(N)c2ncn(-c3ccc(Cl)c(Cl)c3)c2n1 | > 100 | > 100 | 50.8 | 69.6 | > 100 |  | 72.6 | > 100 |  |  | > 100 | 87.7 | > 100 | > 100 | 28.7 | 57.9 | > 100 | > 100 | 75.2 | 49.2
Brc1cccc(Nc2ncnc3sc4c(c23)CCC(Nc2cccc(Br)c2)C4)c1 (configuration not stated) | > 100 | > 100 | > 100 | > 100 | > 100 | > 100 | > 100 | > 100 | > 100 |  | > 100 | > 100 | > 100 | > 100 | > 100 | > 100 | > 100 | > 100 |  | > 100
CN(C(=O)[C@@H](NC(=O)OC(C)(C)C)c1ccccc1)[C@H]1CCCC[C@@H]1N1CCCC1 | > 100 | > 100 |  | > 100 | > 100 |  | > 100 | > 100 |  | > 100 | > 100 | > 100 | > 100 | > 100 | > 100 | > 100 |  | > 100 | > 100 | 
COC(=O)/C=C\[C@@H]1[C@H](C)N1S(=O)(=O)c1ccc(C)cc1 (some centres not stated) | > 100 | > 100 | > 100 | > 100 | > 100 | > 100 | > 100 | > 100 |  | > 100 | > 100 | > 100 | > 100 | > 100 | > 100 | > 100 | > 100 | > 100 | > 100 | > 100
CC(=O)/C=C(/C=N/O)c1ccccc1 | > 100 | > 100 |  | > 100 |  | > 100 | > 100 | > 100 | > 100 | > 100 | > 100 | > 100 | > 100 | > 100 | > 100 | > 100 | > 100 | > 100 | > 100 | > 100
Cc1ccc(C(=O)OC(C)C)cc1N=NN(C)C | > 100 | > 100 |  | > 100 | > 100 | > 100 | > 100 | > 100 |  | > 100 | > 100 | > 100 | > 100 | > 100 | > 100 | 81.9 | > 100 | > 100 | > 100 | > 100
CCN(CC)CCSc1n[nH]c(-c2c[nH]c3nc(C)ccc3c2=O)n1 | > 100 | > 100 | > 100 | > 100 | > 100 | > 100 | > 100 | > 100 |  |  | > 100 | > 100 |  | > 100 | > 100 | > 100 |  | > 100 | > 100 | > 100
Cc1cc(C)c(S(=O)(=O)N(CCCCCCN)OCCCN)c(C)c1 | 37.4 | 36.1 |  | 34.8 | 31.3 | 31.6 | 33.3 | 40.1 | 22.8 |  | 30.9 | 46 | 34 | > 100 | 32.3 | 29.7 | 32.6 | 40.4 | > 100 | 24
COc1cc(/C=C2\N=C(c3ccccc3)N(c3nc4cc(C)c(C)cc4s3)C2=O)cc(OC)c1OC | > 100 | > 100 | 65.2 | > 100 | > 100 | > 100 | > 100 | 84.2 | 60 | 53.1 | 83.9 | 66.6 | > 100 | > 100 | > 100 | > 100 | 45.7 | > 100 | > 100 | 
COc1cc(C2=C(C)[C@@H]3CN(CC=C3c3ccc(Cl)cc3)C2)c(S(=O)(=O)O)cc1OC | > 100 | > 100 | > 100 | > 100 | > 100 |  | > 100 | > 100 | > 100 | > 100 | > 100 | > 100 | > 100 | > 100 | > 100 | > 100 |  | > 100 | > 100 | > 100
Cc1ccc(/C=N/Nc2cc(C)c3ccccc3n2)s1 | > 100 | > 100 | 75.5 | 32 |  |  | 42 | 37.4 | > 100 | > 100 | 45.4 | 30.8 | 43.2 | 40.6 | > 100 | 50.7 | 33.8 | > 100 | 29.1 | 22.4
CCCC(=O)OCC1(CO)C/C(=C/CC(C(C)C)C(C)C)C(=O)O1 (configuration not stated) | > 100 | > 100 | > 100 | > 100 | > 100 | > 100 | > 100 | > 100 | > 100 |  | > 100 | > 100 | > 100 | > 100 | > 100 | > 100 | > 100 | > 100 |  | > 100
OC1CSCCCSCCSCCCSC1 | > 100 | > 100 | > 100 | > 100 | > 100 | > 100 | > 100 | > 100 | > 100 |  | > 100 | > 100 | > 100 | > 100 | > 100 | > 100 | > 100 | > 100 | > 100 | 
O=S(Nc1ccccc1)c1ccc(-c2ccccc2)cc1 (configuration not stated) | > 100 | > 100 |  | > 100 | > 100 | > 100 | > 100 | > 100 |  | > 100 | > 100 | > 100 |  | > 100 | > 100 | > 100 | > 100 | > 100 | > 100 | > 100
CCNc1nc(N)c(C(=O)c2cccs2)s1 | 84.3 | > 100 | 20 | > 100 | > 100 | > 100 | > 100 | > 100 | 36.6 |  | > 100 | > 100 | > 100 | > 100 | 22.8 | > 100 | > 100 | > 100 |  | > 100
Cc1ccc(S(=O)(=O)NC(=O)NC(C(=O)O)C(C)O)cc1 (configuration not stated) | > 100 | > 100 | > 100 | > 100 | > 100 | > 100 | > 100 | > 100 | > 100 | > 100 | > 100 | > 100 | > 100 | > 100 | > 100 | > 100 |  | > 100 | > 100 | > 100
COC(=O)c1ccc(/C=C2\Cc3ccccc3C2=O)cc1 | > 100 | > 100 | > 100 | > 100 | > 100 | > 100 | > 100 |  | > 100 | > 100 | > 100 | > 100 | > 100 | > 100 | > 100 | > 100 | > 100 | > 100 | > 100 | 
CC(C)Oc1c(C2(c3ccccc3O)SCCCS2)c(=O)c1=O | > 100 | > 100 | > 100 | > 100 | > 100 | > 100 | > 100 | > 100 | > 100 |  | > 100 | > 100 | > 100 | > 100 | > 100 | > 100 |  | > 100 |  | 
CCOc1ncn(-c2ccc(NC(=S)Nc3cnccn3)cc2)n1 | > 10 |  | > 10 | > 10 | > 10 | > 10 | > 10 | > 10 | > 10 | > 10 | > 10 |  | > 10 | > 10 |  | > 10 |  |  |  | > 10
CC1=C(C(=O)NNC(=O)C(N)=O)CC(C(=O)NNC(=O)C(N)=O)=C(C)N1 | > 100 | > 100 | > 100 | > 100 | > 100 | > 100 | > 100 | > 100 | > 100 | > 100 | > 100 | > 100 | > 100 | > 100 | > 100 | > 100 | > 100 | > 100 | > 100 | 
N#Cc1c(N)c2c(c(-c3ccccc3)c1-c1ccccc1)C(=O)N(Nc1ccccc1)C2=O | 71 | > 100 | 65.2 | > 100 | > 100 | > 100 | > 100 | > 100 | > 100 | > 100 | > 100 |  |  | > 100 | 56.7 | > 100 | > 100 | > 100 | > 100 | > 100
CC(=O)c1cccc(Nc2c3ccccc3nc3occc23)c1 | 28 | 7.97 | 6.73 | 44 | > 100 | > 100 | 54.3 | > 100 |  | > 100 | > 100 | 20.6 | 36 | > 100 | 29.1 | 25.5 | 25.2 |  | 15.9 | 27.6
